Key:
[1] = after intravenous administration; cited from earlier work
[2] = Uptake in end bone and midbone of femur in anesthetized rats, NaI scintillation counting (Table II); format: in vivo; conditions: vein, 120 minutes; for % Dose/gram End Bone: femur ends; for % Dose/gram Midbone: femur mid-section; for End-/Mid-bone: femur, ratio of end bone to midbone
Procedure: Fifty μl of the complex prepared in Example 1 was injected into the vein of anesthetized laboratory rats. After 120 minutes the animals were killed and the femurs removed. The ends of the bones were cut away from the mid-section and each section was weighed and analyzed separately. The amount of activity in the bone sections was quantitated using NaI scintillation counting. The results were compared to those of complexes prepared from commercial diphosphonate kits (Table II).

Compound	accumulation by bone (in words) [1]	% Dose/gram End Bone [2]	% Dose/gram Midbone [2]	End-/Mid-bone [2]
[85Sr] [Sr-85, Strontium-85]	rapidly accumulated by bone			
O=P(O)(O)OP(=O)(O)O [PYP, pyrophosphate]		3.50 % Dose/gram	1.78 % Dose/gram	1.97
CC(O)(P(=O)(O)O)P(=O)(O)O [EHDP, hydroxyethanediphosphosphonate]		3.40 % Dose/gram	1.46 % Dose/gram	2.33
methylenediphosphonate [MDP]		3.95 % Dose/gram	1.90 % Dose/gram	2.08
